ChEMBL document CHEMBL1201862, “PubChem BioAssay data set” (2004)
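Step 1: Grow cells in 96-well plates. Step 2: Expose to compound for 48 hours at 5 concentrations. Step 3: Interpolate endpoints linearly; if unreached, use highest concentration. GI50 marks 50% less growth.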 Calls of active or inactive are those of the source. Cut-off read from the data, not from the text of the source: active = GI50 up to about 1.1 µM and inactive = higher.

Experiments:
Assay in all cases: inhibition of tumour cell growth, NCI panel, 48 h
[1] = tested on: BT-549
[2] = tested on: NCI-H23
[3] = tested on: MDA-MB-231
[4] = tested on: PC-3
[5] = tested on: SW-620
[6] = tested on: 786-0
[7] = tested on: K562
[8] = tested on: HOP-92
[9] = tested on: LOX IMVI
[10] = tested on: NCI-H226
[11] = tested on: OVCAR-3
[12] = tested on: A498
[13] = tested on: MOLT-4
[14] = tested on: M14
[15] = tested on: UO-31
[16] = tested on: KM12
[17] = tested on: HL-60
[18] = tested on: IGROV-1
[19] = tested on: DU-145
[20] = tested on: Malme-3M

Measured: GI50

Cc1ccc(NC(=O)/C(=N/N(C)C)C(C2OC(=O)c3ccccc32)[N+](=O)[O-])cc1 (centres undefined)
inactive: [1] > 100 µM | [2] > 100 µM | [3] > 100 µM | [4] > 100 µM | [5] > 100 µM | [6] > 100 µM | [7] > 100 µM | [8] > 100 µM | [9] > 100 µM | [10] > 100 µM | [11] > 100 µM | [12] > 100 µM | [13] > 100 µM | [14] > 100 µM | [15] > 100 µM | [16] > 100 µM | [17] > 100 µM

COC(=O)c1c(OC(C)=O)ccc2c1c1c(OC(C)=O)c3ccccc3c(OC(C)=O)c1n2C
inactive: [1] 21.8 µM | [2] 40.8 µM | [3] 31.5 µM | [18] 7.87 µM | [19] 19.9 µM | [20] 37.7 µM | [4] 30.4 µM | [6] 26.4 µM | [7] 19.2 µM | [8] 4.39 µM | [10] 47.1 µM | [11] 14.7 µM | [13] 15.4 µM | [14] 27.6 µM | [15] 25.1 µM | [16] 20.5 µM | [17] 22.1 µM

O=C1C=C(Nc2ccc(S(=O)(=O)Nc3nccs3)cc2)c2ccccc2C1=O
inactive: [1] 20.7 µM | [2] 35.6 µM | [3] 26.5 µM | [18] 12.5 µM | [20] 21 µM | [4] 71.4 µM | [5] 19.4 µM | [6] 36.6 µM | [7] 12.1 µM | [8] 34.5 µM | [9] 19.8 µM | [10] 21.9 µM | [11] 17 µM | [12] 71 µM | [13] 11.8 µM | [14] 21.9 µM | [15] 56.9 µM | [16] 17.8 µM | [17] 24.7 µM

CC1(C)Oc2ccc3c(=O)c4ccccc4oc3c2C1C(=O)O (centres undefined)
inactive: [1] > 100 µM | [2] > 100 µM | [3] > 100 µM | [18] > 100 µM | [19] > 100 µM | [20] > 100 µM | [4] > 100 µM | [6] > 100 µM | [7] > 100 µM | [10] > 100 µM | [11] > 100 µM | [12] > 100 µM | [13] > 100 µM | [14] > 100 µM

N#CCCC(CCC#N)(CCC#N)NO
inactive: [1] > 100 µM | [2] > 100 µM | [3] > 100 µM | [18] > 100 µM | [19] > 100 µM | [20] > 100 µM | [4] > 100 µM | [5] > 100 µM | [6] > 100 µM | [7] > 100 µM | [8] > 100 µM | [10] > 100 µM | [14] > 100 µM | [15] > 100 µM | [16] > 100 µM | [17] > 100 µM

COC(=O)C1(O)C(c2ccccc2)NC2(C)CCCC21 (centres undefined)
inactive: [1] > 100 µM | [2] > 100 µM | [3] > 100 µM | [18] > 100 µM | [19] > 100 µM | [20] > 100 µM | [4] > 100 µM | [5] > 100 µM | [6] > 100 µM | [9] > 100 µM | [10] > 100 µM | [12] > 100 µM | [13] > 100 µM | [14] > 100 µM | [15] > 100 µM | [16] > 100 µM | [17] > 100 µM

CC(C)(C)[Si](C)(C)OCC1OC(n2cc(F)c(=O)[nH]c2=O)CC1O[Si](C)(C)C(C)(C)C (centres undefined)
inactive: [1] 5.43 µM | [2] 6.53 µM | [3] 7.5 µM | [18] 6.71 µM | [19] 3.46 µM | [20] 16.4 µM | [4] 3.16 µM | [5] 9.93 µM | [6] 8.63 µM | [7] 4.14 µM | [9] 5.79 µM | [10] 19.4 µM | [11] 15.2 µM | [12] 6.87 µM | [13] 3.98 µM | [14] 13.3 µM | [15] 10.8 µM | [16] 4.19 µM | [17] 3.78 µM

Cn1c(COC(=O)NC2CCCCC2)c(COC(=O)NC2CCCCC2)c2ccc3ccccc3c21
inactive: [1] 55.3 µM | [2] 21.8 µM | [3] 69.5 µM | [18] 19.1 µM | [20] 36.4 µM | [4] 75.9 µM | [5] 32.4 µM | [6] 13.3 µM | [7] 51.2 µM | [8] 28.1 µM | [9] 23.3 µM | [10] 23.7 µM | [11] 58.3 µM | [12] 17.5 µM | [13] 9.31 µM | [14] 67.3 µM | [15] 34 µM | [16] 30 µM

O=C1C(C(c2ccccc2)N2CCOCC2)=C(O)C(c2ccccc2)N1c1ccccc1 (centres undefined)
inactive: [1] > 10 µM | [2] > 10 µM | [3] > 10 µM | [18] > 10 µM | [19] > 10 µM | [20] 3.05 µM | [4] > 10 µM | [5] > 10 µM | [6] > 10 µM | [7] > 10 µM | [9] > 10 µM | [10] > 10 µM | [11] > 10 µM | [12] > 10 µM | [13] 4.31 µM | [14] > 10 µM | [15] > 10 µM | [16] > 10 µM | [17] > 10 µM

CCN(CC)C(=O)N[C@@H](Cc1ccccc1)C(=O)NC
inactive: [1] > 100 µM | [2] > 100 µM | [3] > 100 µM | [18] > 100 µM | [19] > 100 µM | [20] > 100 µM | [4] > 100 µM | [5] > 100 µM | [6] > 100 µM | [7] > 100 µM | [9] > 100 µM | [10] > 100 µM | [11] > 100 µM | [12] > 100 µM | [13] > 100 µM | [14] > 100 µM | [15] > 100 µM | [16] > 100 µM | [17] > 100 µM

Cc1cccc2nc3cc(O)cc(O)c3c(O)c12
inactive: [1] > 10 µM | [2] > 10 µM | [3] > 10 µM | [18] > 10 µM | [19] > 10 µM | [20] > 10 µM | [4] > 10 µM | [5] > 10 µM | [6] > 10 µM | [7] > 10 µM | [8] > 10 µM | [9] > 10 µM | [10] > 10 µM | [11] > 10 µM | [13] > 10 µM | [14] > 10 µM | [15] > 10 µM | [16] > 10 µM

C=C1C(=O)C([Si](C)(C)C)=C2C=C(C)C3(CC3)C12C (centres undefined)
inactive: [1] 25.4 µM | [2] 46.6 µM | [3] 23 µM | [18] 25.2 µM | [19] > 100 µM | [20] 14.7 µM | [4] 3.36 µM | [5] 59.7 µM | [6] 95.3 µM | [7] 19.1 µM | [9] 22.6 µM | [10] 32 µM | [11] 29.2 µM | [12] 31 µM | [13] 1.12 µM | [14] 39.8 µM | [15] 43.8 µM | [16] 38.3 µM | [17] 7.08 µM

CC(=O)OC1C(COC(=O)c2ccccc2)OC(Nc2ncc(-c3ccc(Br)cc3)s2)C(OC(=O)c2ccccc2)C1OC(=O)c1ccccc1 (centres undefined)
inactive: [1] > 100 µM | [2] > 100 µM | [3] > 100 µM | [18] > 100 µM | [19] > 100 µM | [20] > 100 µM | [4] > 100 µM | [5] > 100 µM | [6] 84.1 µM | [7] > 100 µM | [8] 93.1 µM | [9] > 100 µM | [10] > 100 µM | [11] > 100 µM | [13] > 100 µM | [14] > 100 µM | [15] > 100 µM

CC(=O)Oc1ccc2c(c1)oc1c3ccc(OC(C)=O)cc3n(C)c(=O)c21
inactive: [1] 93.1 µM | [2] 46.3 µM | [3] 27 µM | [18] 29.9 µM | [19] 24 µM | [20] 6.47 µM | [4] 22.1 µM | [5] 26.4 µM | [6] 1.15 µM | [7] 30.5 µM | [8] 28.7 µM | [10] 10.2 µM | [11] 32.5 µM | [13] 25.1 µM | [14] 10.3 µM | [15] 50.1 µM | [16] 3.78 µM

O=C(c1nsc(Cl)c1Cl)N1CCCCC1
inactive: [1] > 100 µM | [2] > 100 µM | [3] > 100 µM | [18] > 100 µM | [19] > 100 µM | [20] > 100 µM | [4] > 100 µM | [5] > 100 µM | [6] > 100 µM | [7] > 100 µM | [9] > 100 µM | [10] > 100 µM | [11] > 100 µM | [13] > 100 µM | [14] > 100 µM | [15] 39.5 µM | [16] > 100 µM | [17] > 100 µM
